Assay results from US10246453B2, “Benzenesulfonamide compounds and their use as therapeutic agents” (Xenon Pharmaceuticals Inc., priority 2016, dated 2019).

Tests used:
[1] = target: NaV1.1 (Homo sapiens (Human), UniProt P35498); assay: Sodium Influx Assay (Flux), NaV1.1; format: cell-based; settings: Trex HEK293 cells, ANG2 dye; arithmetic mean
[2] = target: NaV1.6 (Homo sapiens (Human), UniProt Q9UQD0); assay: Sodium Influx Assay (Flux), NaV1.6; settings: read-out: Flux NaV1.6 IC50; Trex HEK293 cells, ANG2 dye; arithmetic mean
[3] = target: NaV1.5 (Homo sapiens (Human), UniProt Q14524); assay: Sodium Influx Assay (Flux), NaV1.5; settings: read-out: Flux NaV1.5 IC50; Trex HEK293 cells, ANG2 dye; arithmetic mean
NaV1.5, sequence (Q14524 other isoform, or with tags, fused parts or gaps): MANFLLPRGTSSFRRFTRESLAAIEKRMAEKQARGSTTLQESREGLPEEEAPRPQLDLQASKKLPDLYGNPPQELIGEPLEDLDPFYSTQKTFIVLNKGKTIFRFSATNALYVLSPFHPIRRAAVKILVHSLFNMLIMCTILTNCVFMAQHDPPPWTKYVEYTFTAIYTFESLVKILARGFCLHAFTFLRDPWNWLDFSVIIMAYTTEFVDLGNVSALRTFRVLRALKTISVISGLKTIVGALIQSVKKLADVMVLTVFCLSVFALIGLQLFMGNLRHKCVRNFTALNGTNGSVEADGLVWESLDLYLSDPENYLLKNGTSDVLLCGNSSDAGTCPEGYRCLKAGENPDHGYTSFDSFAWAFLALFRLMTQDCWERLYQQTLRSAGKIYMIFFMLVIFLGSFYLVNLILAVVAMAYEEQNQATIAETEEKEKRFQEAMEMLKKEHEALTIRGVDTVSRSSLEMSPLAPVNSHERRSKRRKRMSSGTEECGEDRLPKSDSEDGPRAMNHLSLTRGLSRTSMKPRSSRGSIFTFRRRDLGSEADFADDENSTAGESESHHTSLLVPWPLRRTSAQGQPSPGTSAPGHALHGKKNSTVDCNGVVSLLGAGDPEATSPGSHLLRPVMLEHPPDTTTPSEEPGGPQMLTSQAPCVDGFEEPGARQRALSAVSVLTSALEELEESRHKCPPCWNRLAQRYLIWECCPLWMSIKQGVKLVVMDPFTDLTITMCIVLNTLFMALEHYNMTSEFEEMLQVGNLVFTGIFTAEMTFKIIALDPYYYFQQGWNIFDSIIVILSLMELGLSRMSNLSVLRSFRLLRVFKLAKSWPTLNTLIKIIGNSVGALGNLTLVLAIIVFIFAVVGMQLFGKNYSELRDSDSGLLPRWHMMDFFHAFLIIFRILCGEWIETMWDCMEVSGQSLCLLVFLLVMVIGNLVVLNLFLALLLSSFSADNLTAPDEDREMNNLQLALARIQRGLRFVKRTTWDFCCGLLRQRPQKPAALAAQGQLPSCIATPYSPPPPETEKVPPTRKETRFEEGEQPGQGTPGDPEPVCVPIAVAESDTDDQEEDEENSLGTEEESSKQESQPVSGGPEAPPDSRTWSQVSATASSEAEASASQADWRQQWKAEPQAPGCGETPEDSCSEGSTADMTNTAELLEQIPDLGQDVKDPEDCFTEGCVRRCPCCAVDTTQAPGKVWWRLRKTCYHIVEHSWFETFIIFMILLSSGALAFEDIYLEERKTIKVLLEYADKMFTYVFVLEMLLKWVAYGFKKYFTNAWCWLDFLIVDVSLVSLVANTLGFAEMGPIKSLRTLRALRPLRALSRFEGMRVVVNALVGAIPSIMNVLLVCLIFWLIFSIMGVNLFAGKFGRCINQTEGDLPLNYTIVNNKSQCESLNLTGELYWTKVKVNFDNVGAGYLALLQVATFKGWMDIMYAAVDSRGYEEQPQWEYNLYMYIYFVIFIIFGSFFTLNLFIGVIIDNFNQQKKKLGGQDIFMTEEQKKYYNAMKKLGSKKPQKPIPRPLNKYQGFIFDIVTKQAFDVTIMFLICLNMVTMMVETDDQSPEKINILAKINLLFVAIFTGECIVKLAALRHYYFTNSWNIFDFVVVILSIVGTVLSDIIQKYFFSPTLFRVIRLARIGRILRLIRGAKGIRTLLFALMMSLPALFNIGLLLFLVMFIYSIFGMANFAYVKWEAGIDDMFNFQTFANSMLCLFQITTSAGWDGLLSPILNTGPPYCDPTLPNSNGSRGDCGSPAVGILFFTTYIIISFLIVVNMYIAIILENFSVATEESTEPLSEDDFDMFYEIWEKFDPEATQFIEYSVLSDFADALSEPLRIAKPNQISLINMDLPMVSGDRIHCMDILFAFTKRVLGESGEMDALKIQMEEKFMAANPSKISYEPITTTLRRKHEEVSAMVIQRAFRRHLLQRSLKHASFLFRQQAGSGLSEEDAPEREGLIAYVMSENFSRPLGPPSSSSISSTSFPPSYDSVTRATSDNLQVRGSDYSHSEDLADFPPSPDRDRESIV

`Cc1ccc(F)c(CN2CC[C@H](N(C)c3cc(F)c(S(=O)(=O)Nc4cscn4)cc3C)C2)n1` [Example 130, (S)-2-fluoro-4-((1-((3-fluoro-6-methylpyridin-2-yl)methyl)pyrrolidin-3-yl)(methyl)amino)-5-methyl-N-(thiazol-4-yl)benzenesulfonamide] gave an IC50 [1] of over 30 µM, an IC50 [2] of 285 nM and an IC50 [3] of 24.2 µM.

`Cc1nc(CN2CC[C@H](N(C)c3cc(F)c(S(=O)(=O)Nc4cscn4)cc3C)C2)co1` [Example 131, (S)-2-fluoro-5-methyl-4-(methyl(1-((2-methyloxazol-4-yl)methyl)pyrrolidin-3-yl)amino)-N-(thiazol-4-yl)benzenesulfonamide] was tested, and the IC50 [1] was over 30 µM, the IC50 [2] was 2860 nM and the IC50 [3] was over 30 µM.

`Cc1ccc(CN2CC[C@H](N(C)c3cc(F)c(S(=O)(=O)Nc4cscn4)cc3C)C2)o1` [Example 132, (S)-2-fluoro-5-methyl-4-(methyl(1-((5-methylfuran-2-yl)methyl)pyrrolidin-3-yl)amino)-N-(thiazol-4-yl)benzenesulfonamide] gave an IC50 [1] of 20.9 µM, an IC50 [2] of 146 nM and an IC50 [3] of over 30 µM.

For `Cc1cc(S(=O)(=O)Nc2cscn2)c(F)cc1N(C)[C@H]1CCN(Cc2coc(C(C)C)n2)C1` [Example 133, (S)-2-fluoro-4-((1-((2-isopropyloxazol-4-yl)methyl)pyrrolidin-3-yl)(methyl)amino)-5-methyl-N-(thiazol-4-yl)benzenesulfonamide], the IC50 [1] was 10.9 µM, the IC50 [2] was 245 nM and the IC50 [3] was over 30 µM.

With `Cc1cc(S(=O)(=O)Nc2cscn2)c(F)cc1N(C)[C@H]1CCN(Cc2nc(C3CC3)cs2)C1` [Example 134, (S)-4-((1-((4-cyclopropylthiazol-2-yl)methyl)pyrrolidin-3-yl)(methyl)amino)-2-fluoro-5-methyl-N-(thiazol-4-yl)benzenesulfonamide] the IC50 [1] was 12.1 µM, the IC50 [2] was 412 nM and the IC50 [3] was over 30 µM.

With `Cc1cc(S(=O)(=O)Nc2cscn2)c(F)cc1N(C)[C@H]1CCN(Cc2csc(-c3ccccc3)n2)C1` [Example 135, (S)-2-fluoro-5-methyl-4-(methyl(1-((2-phenylthiazol-4-yl)methyl)pyrrolidin-3-yl)amino)-N-(thiazol-4-yl)benzenesulfonamide] the IC50 [1] was 0.564 µM, the IC50 [2] was 640 nM and the IC50 [3] was 1.67 µM.

Compound `Cc1cc(S(=O)(=O)Nc2cscn2)c(F)cc1N(C)[C@H]1CCN(Cc2nccs2)C1` [Example 136, (S)-2-fluoro-5-methyl-4-(methyl(1-(thiazol-2-ylmethyl)pyrrolidin-3-yl)amino)-N-(thiazol-4-yl)benzenesulfonamide] has an IC50 [1] of over 30 µM, an IC50 [2] of 6800 nM and an IC50 [3] of over 30 µM.

`Cc1cc(S(=O)(=O)Nc2cscn2)c(F)cc1N(C)[C@H]1CCN(Cc2csc(C(F)(F)F)n2)C1` [Example 137, (S)-2-fluoro-5-methyl-4-(methyl(1-((2-(trifluoromethyl)thiazol-4-yl)methyl)pyrrolidin-3-yl)amino)-N-(thiazol-4-yl)benzenesulfonamide] showed an IC50 [1] of 5.07 µM, an IC50 [2] of 217 nM and an IC50 [3] of 16.5 µM.

With `Cc1cc(S(=O)(=O)Nc2cscn2)c(F)cc1N(C)[C@H]1CCN(Cc2csc(C3CC3)n2)C1` [Example 138, (S)-4-((1-((2-cyclopropylthiazol-4-yl)methyl)pyrrolidin-3-yl)(methyl)amino)-2-fluoro-5-methyl-N-(thiazol-4-yl)benzenesulfonamide] the IC50 [1] was 9.48 µM, the IC50 [2] was 50 nM and the IC50 [3] was 10.4 µM.

`Cc1coc(CN2CC[C@H](N(C)c3cc(F)c(S(=O)(=O)Nc4cscn4)cc3C)C2)n1` [Example 139, (S)-2-fluoro-5-methyl-4-(methyl(1-((4-methyloxazol-2-yl)methyl)pyrrolidin-3-yl)amino)-N-(thiazol-4-yl)benzenesulfonamide] was tested, and the IC50 [1] was over 30 µM, the IC50 [2] was 7730 nM and the IC50 [3] was over 30 µM.

`Cc1cc(S(=O)(=O)Nc2cscn2)c(F)cc1N(C)[C@H]1CCN(Cc2cscn2)C1` [Example 140, (S)-2-fluoro-5-methyl-4-(methyl(1-(thiazol-4-ylmethyl)pyrrolidin-3-yl)amino)-N-(thiazol-4-yl)benzenesulfonamide] was tested, and the IC50 [1] was over 30 µM, the IC50 [2] was 2080 nM and the IC50 [3] was over 30 µM.

In the case of `Cc1cc(S(=O)(=O)Nc2cscn2)c(F)cc1N(C)[C@H]1CCN(Cc2cc(C)n(C)n2)C1` [Example 141, (S)-4-((1-((1,5-dimethyl-1H-pyrazol-3-yl)methyl)pyrrolidin-3-yl)(methyl)amino)-2-fluoro-5-methyl-N-(thiazol-4-yl)benzenesulfonamide], the IC50 [1] is reported as over 30 µM, the IC50 [2] is reported as 582 nM and the IC50 [3] is reported as over 30 µM.

In the case of `Cc1cc(S(=O)(=O)Nc2cscn2)c(F)cc1N(C)[C@H]1CCN(Cc2ccc(C(F)(F)F)o2)C1` [Example 142, (S)-2-fluoro-5-methyl-4-(methyl(1-((5-(trifluoromethyl)furan-2-yl)methyl)pyrrolidin-3-yl)amino)-N-(thiazol-4-yl)benzenesulfonamide], the IC50 [1] is reported as 3.7 µM, the IC50 [2] is reported as 531 nM and the IC50 [3] is reported as 6.76 µM.

`Cc1cc(S(=O)(=O)Nc2cscn2)c(F)cc1N(C)[C@H]1CCN(Cc2cocn2)C1` [Example 143, (S)-2-fluoro-5-methyl-4-(methyl(1-(oxazol-4-ylmethyl)pyrrolidin-3-yl)amino)-N-(thiazol-4-yl)benzenesulfonamide] was tested, and the IC50 [1] was over 30 µM, the IC50 [2] was 10200 nM and the IC50 [3] was over 30 µM.

In the case of `Cc1cc(S(=O)(=O)Nc2cscn2)c(F)cc1N(C)[C@H]1CCN(Cc2nc3ccccc3s2)C1` [Example 144, (S)-4-((1-(benzo[d]thiazol-2-ylmethyl)pyrrolidin-3-yl)(methyl)amino)-2-fluoro-5-methyl-N-(thiazol-4-yl)benzenesulfonamide], the IC50 [1] is reported as 6.72 µM, the IC50 [2] is reported as 4800 nM and the IC50 [3] is reported as 8.47 µM.

For `Cc1cc(S(=O)(=O)Nc2cscn2)c(F)cc1N(C)[C@H]1CCN(Cc2nc(C(C)C)cs2)C1` [Example 145, (S)-2-fluoro-4-((1-((4-isopropylthiazol-2-yl)methyl)pyrrolidin-3-yl)(methyl)amino)-5-methyl-N-(thiazol-4-yl)benzenesulfonamide], the IC50 [1] was 9.63 µM, the IC50 [2] was 515 nM and the IC50 [3] was 17.1 µM.

Compound `Cc1cc(S(=O)(=O)Nc2cscn2)c(F)cc1N(C)[C@H]1CCN(Cc2ncc(Cl)s2)C1` [Example 146, (S)-4-((1-((5-chlorothiazol-2-yl)methyl)pyrrolidin-3-yl)(methyl)amino)-2-fluoro-5-methyl-N-(thiazol-4-yl)benzenesulfonamide] has an IC50 [1] of 9.32 µM, an IC50 [2] of 4400 nM and an IC50 [3] of 12.1 µM.

With `Cc1cc(S(=O)(=O)Nc2cscn2)c(F)cc1N(C)[C@H]1CCN(Cc2ccn(C(F)F)n2)C1` [Example 147, (S)-4-((1-((1-(difluoromethyl)-1H-pyrazol-3-yl)methyl)pyrrolidin-3-yl)(methyl)amino)-2-fluoro-5-methyl-N-(thiazol-4-yl)benzenesulfonamide] the IC50 [1] was over 30 µM, the IC50 [2] was 482 nM and the IC50 [3] was over 30 µM.

Work on `Cc1ccccc1CN1CC[C@H](N(C)c2cc(F)c(S(=O)(=O)Nc3cscn3)cc2C)C1` [Example 148, (S)-2-fluoro-5-methyl-4-(methyl(1-(2-methylbenzyl)pyrrolidin-3-yl)amino)-N-(thiazol-4-yl)benzenesulfonamide] yielded an IC50 [1] of 7.58 µM, an IC50 [2] of 129 nM and an IC50 [3] of 12.4 µM.

Compound `Cc1cc(S(=O)(=O)Nc2cscn2)c(F)cc1N(C)[C@H]1CCN(C2Cc3ccccc3C2)C1` [Example 149, (S)-4-((1-(2,3-dihydro-1H-inden-2-yl)pyrrolidin-3-yl)(methyl)amino)-2-fluoro-5-methyl-N-(thiazol-4-yl)benzenesulfonamide] has an IC50 [1] of 6.02 µM, an IC50 [2] of 613 nM and an IC50 [3] of 9.18 µM.

`Cc1cn(C)c(CN2CC[C@H](N(C)c3cc(F)c(S(=O)(=O)Nc4cscn4)cc3C)C2)n1` [Example 150, (S)-4-((1-((1,4-dimethyl-1H-imidazol-2-yl)methyl)pyrrolidin-3-yl)(methyl)amino)-2-fluoro-5-methyl-N-(thiazol-4-yl)benzenesulfonamide] was tested, and the IC50 [1] was over 30 µM, the IC50 [2] was 954 nM and the IC50 [3] was over 30 µM.

In the case of `Cc1cc(S(=O)(=O)Nc2cscn2)c(F)cc1N(C)[C@H]1CCN(Cc2cc3n(n2)CCCC3)C1` [Example 151, (S)-2-fluoro-5-methyl-4-(methyl(1-((4,5,6,7-tetrahydropyrazolo[1,5-a]pyridin-2-yl)methyl)pyrrolidin-3-yl)amino)-N-(thiazol-4-yl)benzenesulfonamide], the IC50 [1] is reported as over 30 µM, the IC50 [2] is reported as 410 nM and the IC50 [3] is reported as over 30 µM.

Work on `Cc1cc(S(=O)(=O)Nc2cscn2)c(F)cc1N(C)[C@H]1CCN(Cc2nc(C(F)(F)F)cs2)C1` [Example 152, (S)-2-fluoro-5-methyl-4-(methyl(1-((4-(trifluoromethyl)thiazol-2-yl)methyl)pyrrolidin-3-yl)amino)-N-(thiazol-4-yl)benzenesulfonamide] yielded an IC50 [1] of 7.21 µM, an IC50 [2] of 1700 nM and an IC50 [3] of 8.91 µM.

`Cc1cc(S(=O)(=O)Nc2cscn2)c(F)cc1N(C)[C@H]1CCN(Cc2ccn(CC(F)F)n2)C1` [Example 153, (S)-4-((1-((1-(2,2-difluoroethyl)-1H-pyrazol-3-yl)methyl)pyrrolidin-3-yl)(methyl)amino)-2-fluoro-5-methyl-N-(thiazol-4-yl)benzenesulfonamide 2,2,2-trifluoroacetate] gave an IC50 [1] of over 30 µM, an IC50 [2] of 185 nM and an IC50 [3] of over 30 µM.

`Cc1nc(CN2CC[C@H](N(C)c3cc(F)c(S(=O)(=O)Nc4cscn4)cc3C)C2)c(C(F)(F)F)o1` [Example 154, (S)-2-fluoro-5-methyl-4-(methyl(1-((2-methyl-5-(trifluoromethyl)oxazol-4-yl)methyl)pyrrolidin-3-yl)amino)-N-(thiazol-4-yl)benzenesulfonamide 2,2,2-trifluoroacetate] gave an IC50 [1] of 16.6 µM, an IC50 [2] of 5570 nM and an IC50 [3] of 21.7 µM.
